According to patent US11369666B2, “Treatment of diseases involving mucin” (NewSouth Innovations Pty Limited, priority 2012, dated 2022):
Several values for one entry are separate records, joined by “and”; a condition that tells them apart may be missing. Equal values may be shown once.

What was measured:
MUC 1 cell lines = experiment: Br and NAC with chemotherapy drugs in MUC 1 cell lines (FIG. 11, 12); assay type: cell-based; conditions: low doses of Cisplatin, FIG. 11 and 12
Description: The combination of Br and NAC with chemotherapy drugs in MUC 1 cell lines was investigated (see FIGS. 11 and 12).

PMP tumor/mucin = experiment: Breakdown of PMP tumor/mucin specimens from 31 patients in the laboratory; assay type: biochemical, human; conditions: for Residual mucin weight post treatment: 300 μg/ml Br, 5% NAC or both
Method: Specimens of tumor/mucin were taken from the abdomen and then subjected to treatment in the laboratory with 300 μg/ml Br, 5% NAC, or a mixture of both, for 3 hours at 37° C. The weight of mucin tumor was measured before and after treatment.

human PMP mucin = experiment: Time course for dissolution of human PMP mucin in the laboratory (FIG. 1); assay type: biochemical; conditions: FIG. 1, agent alone
variant of HT29 (5M21) = experiment: Effect of Br and NAC combination on chemotherapy (FIG. 8); assay type: cell-based
Description: Chemo resistance of mucin secreting cancers is common. The experiments in FIG. 8 again relate to a variant of HT29 (5M21). A combination of Br and NAC was effective, whereas the individual agents were not effective.

[1] = system: mesothelioma cell lines PET and YOU (MUC1); experiment: Growth inhibition of MUC1 mesothelioma cell lines (FIG. 9, 10); assay type: cell-based
Description: The two mesothelioma cell lines PET and YOU (both of which have MUC1) were investigated. These cell lines are different from cancer cells which secrete mucin externally or that have mucin internally in the cell (signet cell).

[2] = system: MKN 45 human gastric mucin secreting cancer cell line; experiment: In vitro growth, SRB assay, 72 hour culture (FIG. 7a); assay type: cell-based; conditions: MKN 45, SRB assay, agents individually
Method: MKN 45 is a human gastric mucin secreting cancer cell line. The effect of NAC, Br and the combination on in vitro growth (SRB assay, 72 hour culture) was studied.

## N.N.[Cl][Pt][Cl] [Cisplatin, cisplatin]
MUC 1 cell lines
  efficacy in MUC 1 cell lines: ineffective

## CC(=O)N[C@@H](CS)C(=O)O [NAC, N-acetyl cysteine]
PMP tumor/mucin; agent alone, 31 patients
  effect of treatment on PMP tumor (Table 1): ineffective
PMP tumor/mucin; in every case, agent on its own, 300 μg/ml Br or 5% NAC, 3 hours at 37° C.
  reduction of weight of mucin tumor: no (or a very modest) reduction of weight
PMP tumor/mucin; patient P1, mucin type soft, 3 hours at 37° C.
  Residual mucin weight post treatment: 1.90 g and 1.67 g
PMP tumor/mucin; patient P2, mucin type soft, 3 hours at 37° C.
  Residual mucin weight post treatment: 1.39 g and 1.53 g
PMP tumor/mucin; patient P3, mucin type soft, 3 hours at 37° C.
  Residual mucin weight post treatment: 1.80 g and 1.83 g
PMP tumor/mucin; patient P4, mucin type Semi solid, 3 hours at 37° C.
  Residual mucin weight post treatment: 1.28 g and 1.53 g
PMP tumor/mucin; patient P5, mucin type Hard, 3 hours at 37° C.
  Residual mucin weight post treatment: 1.69 g and 1.79 g
PMP tumor/mucin; patient P6, mucin type soft, 3 hours at 37° C.
  Residual mucin weight post treatment: 2.13 g and 2.08 g
PMP tumor/mucin; patient P7, mucin type soft, 3 hours at 37° C.
  Residual mucin weight post treatment: 2.13 g and 2.08 g
PMP tumor/mucin; patient P8, mucin type soft, 3 hours at 37° C.
  Residual mucin weight post treatment: 0.95 g and 1.61 g
PMP tumor/mucin; patient P9, mucin type Signet ring carcinoma, 3 hours at 37° C.
  Residual mucin weight post treatment: 1.42 g and 1.56 g
PMP tumor/mucin; patient P10, mucin type Hard, 3 hours at 37° C.
  Residual mucin weight post treatment: 1.82 g and 1.73 g
PMP tumor/mucin; patient P12, mucin type Semi Hard, 3 hours at 37° C.
  Residual mucin weight post treatment: 1.81 g and 1.94 g
PMP tumor/mucin; patient P13, mucin type Hard, 3 hours at 37° C.
  Residual mucin weight post treatment: 1.73 g and 1.43 g
PMP tumor/mucin; patient P14, mucin type soft, 3 hours at 37° C.
  Residual mucin weight post treatment: 1.60 g and 1.57 g
PMP tumor/mucin; patient P15, mucin type soft, 3 hours at 37° C.
  Residual mucin weight post treatment: 1.36 g and 1.37 g
PMP tumor/mucin; patient P16, mucin type soft, 3 hours at 37° C.
  Residual mucin weight post treatment: 1.69 g and 1.62 g
PMP tumor/mucin; patient P17, Scraped mucin from mucoid tissues, 3 hours at 37° C.
  Residual mucin weight post treatment: 2.64 g
PMP tumor/mucin; patient P18, mucin type soft, 3 hours at 37° C.
  Residual mucin weight post treatment: 2.31 g and 2.24 g
PMP tumor/mucin; patient P19, Semi soft Mucin deposits on tissue, 3 hours at 37° C.
  Residual mucin weight post treatment: 1.79 g and 1.89 g
PMP tumor/mucin; patient P20, mucin type soft, 3 hours at 37° C.
  Residual mucin weight post treatment: 2.34 g and 2.36 g
PMP tumor/mucin; patient P21, mucin type soft, 3 hours at 37° C.
  Residual mucin weight post treatment: 2.38 g and 1.74 g
PMP tumor/mucin; patient P22, Adeno-carcinoma, 3 hours at 37° C.
  Residual mucin weight post treatment: 1.74 g and 1.64 g
PMP tumor/mucin; patient P23, mucin type Semi solid, 3 hours at 37° C.
  Residual mucin weight post treatment: 1.76 g
PMP tumor/mucin; patient P24, Mucin deposits on tissue, 3 hours at 37° C.
  Residual mucin weight post treatment: 1.64 g and 1.46 g
PMP tumor/mucin; patient P25, mucin type Hard, 3 hours at 37° C.
  Residual mucin weight post treatment: 1.49 g and 1.37 g
PMP tumor/mucin; patient P26, mucin type Hard, 3 hours at 37° C.
  Residual mucin weight post treatment: 1.23 g and 1.26 g
PMP tumor/mucin; patient P27, mucin type soft, 3 hours at 37° C.
  Residual mucin weight post treatment: 1.92 g and 2.03 g
PMP tumor/mucin; patient P28, mucin type soft, 3 hours at 37° C.
  Residual mucin weight post treatment: 1.48 g
PMP tumor/mucin; patient P29, mucin type soft, 3 hours at 37° C.
  Residual mucin weight post treatment: 1.21 g
PMP tumor/mucin; patient P30, mucin type soft, 3 hours at 37° C.
  Residual mucin weight post treatment: 1.26 g and 1.16 g
PMP tumor/mucin; patient P31, mucin type Hard, 3 hours at 37° C.
  Residual mucin weight post treatment: 1.56 g and 1.84 g
Human PMP mucin
  effect on dissolution of human PMP mucin: no effect
Variant of HT29 (5M21)
  efficacy against 5M21: not effective
[1]; 50 mM NAC alone
  growth inhibition of PET and YOU: ineffective
[1]; FIG. 9 and 10
  growth inhibition of PET and YOU: no action
[2]
  effect on in vitro growth: no or little effect
